As usually defined, the half-life is the time needed for the level to fall by half in the phase considered. Read a high half-life as slow loss. What is called logD is the decadic logarithm of the distribution of all forms, ionised or not, between an organic phase and buffer at a given pH. Higher therefore signals higher lipophilicity.

A short description of data set [1]: Half life of the compound in water. Format: physicochemical.
The nature of data set [2]: Drug metabolism in 0.9% NaCl assessed as compound hydrolysis. It is filed as physicochemical.
A short description of data set [3]: Drug metabolism in PBS buffer assessed as compound hydrolysis. Format: physicochemical.
A short description of data set [4]: Lipophilicity, log D of the compound. Format: physicochemical. As to conditions: octanol/water.
Data set [5] concerns Intestine. The data set is described as follows: Biodistribution in intestine of NMRI nude mouse xenografted with human PC3 cells after 120 mins by gamma-counting analysis. Format: ADME, organism-based, PC-3. Particulars: in vivo, 2 h. (A xenograft is tissue or cells of one species grown in another, often human tumour cells in immunodeficient mice.)
Data set [6] relates to Mus musculus. The data set is described as follows: Biodistribution in gallbladder of NMRI nude mouse xenografted with human PC3 cells after 120 mins by gamma-counting analysis. It is filed as ADME, organism-based, Gall bladder, PC-3. As to conditions: in vivo, 2 h.
In data set [7] the test system is Spleen. The data set is described as follows: Biodistribution in spleen of NMRI nude mouse xenografted with human PC3 cells after 120 mins by gamma-counting analysis. It is filed as ADME, organism-based, PC-3. As to conditions: in vivo, 2 h.
The subject of data set [8] is Mus musculus. The data set is described as follows: Biodistribution in tumor of NMRI nude mouse xenografted with human PC3 cells after 120 mins by gamma-counting analysis. It is filed as ADME, organism-based, Neoplasm, PC-3. As to conditions: in vivo, 2 h.
Data set [9] relates to Pancreas. The data set is described as follows: Biodistribution in pancreas of NMRI nude mouse xenografted with human PC3 cells after 120 mins by gamma-counting analysis. It is filed as ADME, organism-based, PC-3. As to conditions: in vivo, 2 h.
The subject of data set [10] is Kidney. The data set is described as follows: Biodistribution in kidney of NMRI nude mouse xenografted with human PC3 cells after 120 mins by gamma-counting analysis. Format: ADME, organism-based, PC-3. As to conditions: in vivo, 2 h.
The test system of data set [11] is Liver. The data set is described as follows: Biodistribution in liver of NMRI nude mouse xenografted with human PC3 cells after 120 mins by gamma-counting analysis. It is filed as ADME, organism-based, PC-3. Particulars: in vivo, 2 h.
For data set [12], the system named is Blood. The data set is described as follows: Biodistribution in blood of NMRI nude mouse xenografted with human PC3 cells after 120 mins by gamma-counting analysis. It is filed as ADME, organism-based, PC-3. As to conditions: in vivo, 2 h.
Data set [13] in a line: Ratio of biodistribution in tumor to blood of NMRI nude mouse xenografted with human PC3 cells after 120 mins by gamma-counting analysis. Format: ADME, organism-based, PC-3. As to conditions: tumour, 2 h.

Regarding `CC(C)(C)[Si]([18F])(CCO)C(C)(C)C`, in data set [1], the half-life was 8 h. Also, the Drug metabolism entry in [2] and in data set [3] was “Active” in each case.
In [1], `CC(C)(C)[Si](F)(CCn1cc(CC(N)C(=O)O)nn1)C(C)(C)C` (centres undefined) had a half-life of 16 h.
With `CC(C)C[C@H](NC(=O)C[C@H](O)[C@H](CC(C)C)NC(=O)[C@H](Cc1cnc[nH]1)NC(=O)CN(C)C(=O)[C@@H](NC(=O)[C@H](C)NC(=O)[C@H](Cc1c[nH]c2ccccc12)NC(=O)[C@H](CCC(N)=O)NC(=O)CCCCNC(=O)[C@H](CCCNC(=N)N)NC(=O)Cc1ccc([Si]([18F])(C(C)(C)C)C(C)(C)C)cc1)C(C)C)C(N)=O`, the logD in data set [4] was found to be 1.3. Further, the Drug uptake in data set [5] came out at 16 % ID/g; in data set [6] it was 146 % ID/g; in data set [7], 0.46 % ID/g; in data set [8], 0.4 % ID/g; in data set [9] it was 4.08 % ID/g; in data set [10], 1.73 % ID/g. In addition, the Drug uptake came to 4.4 % ID/g in [11] and 0.42 % ID/g in data set [12]. The Ratio in data set [13] worked out at 0.95.

These data come from ChEMBL document CHEMBL2429805, “Studies toward the development of new silicon-containing building blocks for the direct (18)F-labeling of peptides” (J Med Chem, 2013).
